# From the supplement of paper PMC4862054
# Key:
# Hs578T = assay: normalised response (% of control), CellTiter-Glo; higher = more viable cells (100 = DMSO, 0 = benzethonium chloride kill control); conditions: incubation time: 72 h
# In short: (§1)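 Every value is a normalised signal taken at one concentration of a dilution series. Compound was placed in 384-well plates at 5 concentrations in 10-fold steps over a compound-specific 10,000-fold range, and 20 µl of breast cancer cell suspension was seeded onto it. After 72 h, CellTox Green fluorescence (485/520 nm) was measured first and CellTiter-Glo luminescence second, following 10 min at room temperature. Each plate was scaled to 0.1 % DMSO (100) and a positive kill control (0).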
# CAL-120 = assay: as above; conditions: incubation time: 72 h
# In short: as §1
# HDQ-P1 [1] = assay: as above; conditions: incubation time: 72 h
# In short: as §1
# MDA-MB-436 = assay: as above; conditions: incubation time: 72 h
# In short: as §1
# MCF-10A = assay: as above; conditions: incubation time: 72 h
# In short: as §1
# HCC1599 = assay: as above; conditions: incubation time: 72 h
# In short: as §1
# HCC1143 = assay: as above; conditions: incubation time: 72 h
# In short: as §1
# MFM-223 = assay: as above; conditions: incubation time: 72 h
# In short: as §1
# HCC1937 = assay: as above; conditions: incubation time: 72 h
# In short: as §1
# CAL-148 [2] = assay: as above; conditions: incubation time: 72 h
# In short: as §1
# DU-4475 [3] = assay: as above; conditions: incubation time: 72 h
# In short: as §1
# BT-474 [4] = assay: as above; conditions: incubation time: 72 h
# In short: as §1
# CAL-51 [5] = assay: as above; conditions: incubation time: 72 h
# In short: as §1
# BT-549 = assay: as above; conditions: incubation time: 72 h
# In short: as §1
# MDA-MB-231 = assay: as above; conditions: incubation time: 72 h
# In short: as §1
# CAL-85-1 [6] = assay: as above; conditions: incubation time: 72 h
# In short: as §1
# MDA-MB-453 [7] = assay: as above; conditions: incubation time: 72 h
# In short: as §1
# SK-BR-3 = assay: as above; conditions: incubation time: 72 h
# In short: as §1
# MDA-MB-468 [8] = assay: as above; conditions: incubation time: 72 h
# In short: as §1
# HDQ-P1 [9] = assay: normalised viability (% of control), CellTiter-Blue; higher = more viable cells (about 100 = DMSO control); conditions: incubation time: 72 h
# Method: (§2)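 DSRT, CellTiter-Blue viability, 72 h incubation. Signal is normalised to DMSO and benzethonium chloride controls. Value is the normalised response at dose 7.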
# CAL-148 [10] = assay: as above; conditions: incubation time: 72 h
# Method: as §2
# DU-4475 [11] = assay: as above; conditions: incubation time: 72 h
# Method: as §2
# CAL-51 [12] = assay: as above; conditions: incubation time: 72 h
# Method: as §2
# CAL-85-1 [13] = assay: as above; conditions: incubation time: 72 h
# Method: as §2
# MDA-MB-453 [14] = assay: as above; conditions: incubation time: 72 h
# Method: as §2
# MDA-MB-468 [15] = assay: normalised viability (% of control), CellTiter-Blue; higher = more viable cells (about 100 = DMSO control); conditions: incubation time: 72 h
# In short: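 The reported quantity is normalised viability at a single listed concentration of the series. Compound in 5 µl medium was pre-dispensed into 384-well plates and 20 µl of breast cancer cell suspension was added for 72 h. A 2 h, 37 °C CellTiter-Blue step (2.5 µl) preceded fluorescence reading at 560/590 nm, and plates were normalised to vehicle (100) and a positive kill control (0).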
# HDQ-P1 [16] = conditions: 72 h
# In short: (§3)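 The plates used were 384-well plates holding compound at 5 concentrations in 10-fold steps across a compound-specific 10,000-fold range, into which breast cancer cell lines were seeded in 20 µl suspension. Following 72 h incubation, CellTox Green fluorescence was read at 485/520 nm, and CellTiter-Glo luminescence was read after 10 min at room temperature. Normalisation on each plate used 0.1 % DMSO and a positive kill control. Dose-response curves gave the EC50, which was censored at the top concentration.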
# BT-474 [17] = conditions: 72 h
# In short: as §3
# MDA-MB-468 [18] = conditions: 72 h
# In short: as §3
SMILES,normalised response (Hs578T) [%],normalised response (CAL-120) [%],normalised response (HDQ-P1 [1]) [%],normalised response (MDA-MB-436) [%],normalised response (MCF-10A) [%],normalised response (HCC1599) [%],normalised response (HCC1143) [%],normalised response (MFM-223) [%],normalised response (HCC1937) [%],normalised response (CAL-148 [2]) [%],normalised response (DU-4475 [3]) [%],normalised response (BT-474 [4]) [%],normalised response (CAL-51 [5]) [%],normalised response (BT-549) [%],normalised response (MDA-MB-231) [%],normalised response (CAL-85-1 [6]) [%],normalised response (MDA-MB-453 [7]) [%],normalised response (SK-BR-3) [%],normalised response (MDA-MB-468 [8]) [%],normalised viability (HDQ-P1 [9]) [%],normalised viability (CAL-148 [10]) [%],normalised viability (DU-4475 [11]) [%],normalised viability (CAL-51 [12]) [%],normalised viability (CAL-85-1 [13]) [%],normalised viability (MDA-MB-453 [14]) [%],normalised viability (MDA-MB-468 [15]; 10 nM) [%],normalised viability (MDA-MB-468 [15]; 1000 nM) [%],normalised viability (MDA-MB-468 [15]; 10000 nM) [%],"EC50, CellTiter-Glo (HDQ-P1 [16]) [nM]","EC50, CellTiter-Glo (BT-474 [17]) [nM]","EC50, CellTiter-Glo (MDA-MB-468 [18]) [nM]"
O=C1CN2Cc3c(ccc(Cl)c3Cl)N=C2N1 [Anagrelide] (1000 nM),88.7,93.6,95.1,95.8,101,118,97.9,102,96.8,95,98,90.7,88.4,95.1,94.2,101,101,98.2,102,105,104,113,73.6,86.1,103,,,,,,
COc1cc2c(cc1O)CC[C@@H]1[C@@H]2CC[C@]2(C)[C@@H](O)CC[C@@H]12 [2-methoxyestradiol] (1000 nM),77.3,81.8,99.9,74.2,96,96.6,82.5,75.3,89.6,96.4,98.5,68.9,92.9,49.5,73.9,77.6,72.7,83.2,95.1,83,89.7,89.5,107,86.8,53.3,,,,,,
Cc1sc2c(c1C)C(c1ccc(Cl)cc1)=N[C@@H](CC(=O)OC(C)(C)C)c1nnc(C)n1-2 [(+)JQ1],,,,,,,,,,,,,,,,,,,,,,,,,,107,71.8,52.2,129,113,487
CC[C@@H]1C(=O)OC[C@@H]1Cc1cncn1C [Pilocarpine] (4000 nM),105,95.7,92,91.5,93.8,92.7,92.2,94.1,92.6,91.6,97,92.2,96.8,97.6,97.4,102,98.9,92.4,91.8,121,101,95.5,108,89.5,101,,,,,,
Cn1cc(C2=Nc3cc(NC(=O)C(N)C4CCCCC4)cc4c3C2=CNNC4=O)cn1 (centres undefined),,,,,,,,,,,,,,,,,,,,,,,,,,112,19.4,10.4,9680,2290,396
CC1(C)CCC(CN2CCN(c3ccc(C(=O)NS(=O)(=O)c4ccc(NCC5CCOCC5)c([N+](=O)[O-])c4)c(Oc4cnc5[nH]ccc5c4)c3)CC2)=C(c2ccc(Cl)cc2)C1 [ABT-199],,,,,,,,,,,,,,,,,,,,,,,,,,,,,,,> 10000
Nc1nc2[nH]cnc2c(=S)[nH]1 [Thioguanine],,,,,,,,,,,,,,,,,,,,,,,,,,104,62.1,44.4,2970,197,9670
